Experimental data from PubChem BioAssay (NCI).
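Five concentrations, 48 hours, 96-well plates. TGI denotes the concentration required for complete inhibition of growth.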

Tests used:
Assay in all cases: NCI anticancer screen, dose series, 48 h
NCI/ADR-RES ovarian = system: NCI/ADR-RES ovarian
UO-31 renal = system: UO-31 renal
MOLT-4 leukemia = system: MOLT-4 leukemia
786-0 renal = system: 786-0 renal
PC-3 prostate = system: PC-3 prostate
RXF 393 renal = system: RXF 393 renal
K-562 leukemia = system: K-562 leukemia
OVCAR-8 ovarian = system: OVCAR-8 ovarian
SF-539 CNS = system: SF-539 CNS
MCF7 breast = system: MCF7 breast
SNB-19 CNS = system: SNB-19 CNS
IGROV1 ovarian = system: IGROV1 ovarian
ACHN renal = system: ACHN renal
OVCAR-4 ovarian = system: OVCAR-4 ovarian
UACC-62 melanoma = system: UACC-62 melanoma
SK-MEL-2 melanoma = system: SK-MEL-2 melanoma
TK-10 renal = system: TK-10 renal
MDA-MB-435 = system: MDA-MB-435
T-47D breast = system: T-47D breast
NCI-H522 lung = system: NCI-H522 lung

Row | SMILES | TGI (NCI/ADR-RES ovarian) [µM] | TGI (UO-31 renal) [µM] | TGI (MOLT-4 leukemia) [µM] | TGI (786-0 renal) [µM] | TGI (PC-3 prostate) [µM] | TGI (RXF 393 renal) [µM] | TGI (K-562 leukemia) [µM] | TGI (OVCAR-8 ovarian) [µM] | TGI (SF-539 CNS) [µM] | TGI (MCF7 breast) [µM] | TGI (SNB-19 CNS) [µM] | TGI (IGROV1 ovarian) [µM] | TGI (ACHN renal) [µM] | TGI (OVCAR-4 ovarian) [µM] | TGI (UACC-62 melanoma) [µM] | TGI (SK-MEL-2 melanoma) [µM] | TGI (TK-10 renal) [µM] | TGI (MDA-MB-435) [µM] | TGI (T-47D breast) [µM] | TGI (NCI-H522 lung) [µM]
1 | C=CCCC1(CC(Sc2ccccc2)P(=O)(c2ccccc2)c2ccccc2)OCCO1 (configuration not stated) | > 10 | > 10 | > 10 | > 10 | > 10 | > 10 | > 10 | > 10 | > 10 | > 10 | > 10 | > 10 | > 10 | > 10 | > 10 | > 10 | > 10 | > 10 | > 10 | –
2 | CSc1cc(Cl)c(C)cc1S(=O)(=O)NC(=O)NNc1cccc(C(F)(F)F)n1 | > 100 | – | 51.8 | > 100 | > 100 | > 100 | > 100 | > 100 | > 100 | > 100 | > 100 | > 100 | > 100 | > 100 | – | > 100 | – | > 100 | > 100 | > 100
3 | C1=Cc2cc3c(c4nccc(c24)N1)OCO3 | > 67.2 | > 48.8 | > 46.8 | 21.2 | > 100 | 5.64 | 98.9 | > 46.8 | – | 16.1 | > 34.7 | 8.24 | > 34.4 | > 46.6 | 32.2 | 36.6 | > 80.1 | > 56.1 | 34.8 | 26.2
4 | O=C1NC(=S)NC(=O)C1C(c1ccc(O)cc1)C1C(=O)NC(=S)NC1=O | > 100 | > 100 | > 100 | > 100 | > 100 | > 100 | > 100 | > 100 | – | > 100 | > 100 | > 100 | > 100 | > 100 | > 100 | > 100 | > 100 | > 100 | > 100 | > 100
5 | CCOC(=O)c1ccc(NCc2ccc3oc(=O)c(-c4ccccc4)nc3c2)cc1 | > 100 | > 100 | 60.4 | > 100 | > 100 | 87.4 | 85.8 | 65 | > 100 | 38 | > 100 | > 100 | > 100 | 54.1 | > 100 | > 100 | – | 32.7 | 34.1 | 32.1
6 | CO/C=C(/C(=O)OC)c1ccccc1COc1cccc(C(F)(F)F)c1 | > 100 | 77 | > 100 | > 100 | > 100 | 78.3 | > 100 | > 100 | > 100 | > 100 | > 100 | 47.3 | > 100 | > 100 | 42 | 34.2 | – | 23.1 | 91.4 | 5.86
7 | CCOC(=O)c1cc2c3ccn(Cc4ccccc4)c3c3c(C)[nH]oc3c2n1 | > 100 | > 100 | > 100 | > 100 | > 100 | > 100 | > 100 | > 100 | – | > 100 | > 100 | > 100 | > 100 | > 100 | > 100 | > 100 | > 100 | > 100 | > 100 | > 100
8 | N#C[C@@H](c1ccccn1)c1ncccc1[N+](=O)[O-] | > 100 | > 100 | > 100 | > 100 | > 100 | > 100 | > 100 | > 100 | – | > 100 | > 100 | > 100 | > 100 | > 100 | > 100 | > 100 | – | > 100 | > 100 | > 100
9 | CCOC(C)O[C@H]1C(=O)OCC1(C)C (some centres not stated) | > 100 | > 100 | > 100 | > 100 | > 100 | > 100 | > 100 | > 100 | > 100 | > 100 | > 100 | > 100 | > 100 | > 100 | > 100 | > 100 | > 100 | > 100 | > 100 | –
10 | CC1S/C(=N\N=C2/C(=O)Nc3ccc(Br)cc32)N(C2CCCCC2)C1=O (configuration not stated) | 15.6 | 3.08 | > 100 | 6.01 | 19.9 | 14.9 | > 100 | – | 16.3 | 35 | 14.8 | – | 3.24 | 4.89 | 6.75 | 3.65 | 6.58 | 23.1 | 19.6 | –
11 | CC1(C)/C(=C/N=O)N(O)C(C)(C)N1O | > 100 | > 100 | – | > 100 | > 100 | > 100 | > 100 | > 100 | > 100 | > 100 | > 100 | > 100 | > 100 | > 100 | > 100 | > 100 | > 100 | 54.5 | > 100 | –
12 | O=C1NC2O[C@H](CNC(=O)c3cc(Br)c[nH]3)CC2(O)N1 (mixture of isomers) | > 100 | > 100 | > 100 | > 100 | > 100 | – | > 100 | > 100 | > 100 | > 100 | > 100 | > 100 | > 100 | > 100 | > 100 | > 100 | > 100 | > 100 | > 100 | > 100
